Assays:
M1 muscarinic receptor = biological target: T1, M1 muscarinic receptor (Homo sapiens, UniProt P11229); assay: Functional mobilization of intracellular calcium (FLIPR) in M1-CHO cells; assay type: cell-based; details: Table 4; for Emax: 100% efficacy is the maximum response obtained with the Carbachol control; for M1 Activity: M1 receptor, calcium mobilization (FLIPR)
T1 construct: expressed in transfected cells; host or cells: CHO (M1-CHO)
T1 sequence (P11229 1-460): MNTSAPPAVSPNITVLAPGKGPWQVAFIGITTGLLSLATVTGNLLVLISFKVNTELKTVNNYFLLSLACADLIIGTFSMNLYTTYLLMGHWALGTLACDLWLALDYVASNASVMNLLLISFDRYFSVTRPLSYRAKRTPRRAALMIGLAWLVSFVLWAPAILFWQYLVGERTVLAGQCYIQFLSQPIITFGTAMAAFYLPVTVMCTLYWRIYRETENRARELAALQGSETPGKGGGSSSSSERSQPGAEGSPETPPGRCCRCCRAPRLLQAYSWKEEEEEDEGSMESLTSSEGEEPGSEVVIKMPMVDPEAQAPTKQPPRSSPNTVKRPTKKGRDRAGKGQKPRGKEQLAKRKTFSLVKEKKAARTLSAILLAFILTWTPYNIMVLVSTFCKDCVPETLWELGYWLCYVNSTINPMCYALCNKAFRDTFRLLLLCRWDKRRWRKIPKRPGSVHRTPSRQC
In short: (§1)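 Measured via Fluo-3 fluorescence on a FLIPR, CHO cells with either muscarinic subtype received compound in 0.5% DMSO. Antagonism was assessed after 15 min pre-incubation followed by carbachol at each subtype's EC80; agonism from compound addition alone.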

M4 muscarinic receptor = biological target: T2, M4 muscarinic receptor (Homo sapiens, UniProt P08173); assay: Functional mobilization of intracellular calcium (FLIPR) in M4-CHO cells; assay type: cell-based; details: Table 4; for Emax: 100% efficacy is the maximum response obtained with the Carbachol control; for M4 Activity: M4 receptor, calcium mobilization (FLIPR)
T2 construct: expressed in transfected cells; host or cells: CHO (M4-CHO)
T2 sequence (P08173 1-479): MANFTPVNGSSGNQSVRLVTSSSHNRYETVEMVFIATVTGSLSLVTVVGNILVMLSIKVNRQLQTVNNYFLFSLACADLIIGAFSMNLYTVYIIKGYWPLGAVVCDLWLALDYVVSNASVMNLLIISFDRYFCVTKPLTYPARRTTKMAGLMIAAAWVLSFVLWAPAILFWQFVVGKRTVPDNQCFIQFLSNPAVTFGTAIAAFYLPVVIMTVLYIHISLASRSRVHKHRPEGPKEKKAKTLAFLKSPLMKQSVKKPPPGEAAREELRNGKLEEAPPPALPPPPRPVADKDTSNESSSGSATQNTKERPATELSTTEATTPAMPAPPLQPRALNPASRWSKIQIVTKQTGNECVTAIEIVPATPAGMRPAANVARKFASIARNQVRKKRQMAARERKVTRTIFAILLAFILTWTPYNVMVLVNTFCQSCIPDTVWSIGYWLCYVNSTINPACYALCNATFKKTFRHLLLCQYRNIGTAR
In short: as §1

Structure (SMILES)	Emax (M1 muscarinic receptor)	M1 Activity (M1 muscarinic receptor)	Emax (M4 muscarinic receptor)	M4 Activity (M4 muscarinic receptor)
COCCN1CC2(CCN(C3CCCCCC3)CC2)c2cc(F)ccc21 [compound 958]	25 to 100%	xxx (activity was measured to be less than 2.0 μM)	25 to 100%	xxx (activity was measured to be less than 2.0 μM)
CCOC(=O)N1CCC(N2CCC3(CC2)CN(C(=O)N2CCCC2)c2ccccc23)CC1 [compound 959]	25 to 100%	xx (activity was measured to be between 2.0 μM and 5.0 μM)	25 to 100%	xxx (activity was measured to be less than 2.0 μM)
CC(C)N(C(=O)N[C@H]1CC2(CCN(C3CC4CC[C@@H]3C4)CC2)c2ccccc21)C(C)C (stereo partly shown) [compound 960]	< 25%	x (activity was measured to be greater than 5.0 μM)	25 to 100%	xx (activity was measured to be between 2.0 μM and 5.0 μM)
CCOC(=O)N1CCC(N2CCC3(CC[C@H](NC(=O)N(C)C)c4ccccc43)CC2)CC1 [compound 961]	25 to 100%	xxx (activity was measured to be less than 2.0 μM)	25 to 100%	xxx (activity was measured to be less than 2.0 μM)
CC(=O)NC1CCC2(CCN(CCC3CCN(C(=O)OCC(C)C)CC3)CC2)c2ccccc21 (stereo not shown) [compound 962]	< 25%	x (activity was measured to be greater than 5.0 μM)	< 25%	x (activity was measured to be greater than 5.0 μM)
CN(C)C(=O)N1CC2(CCN(C3CCN(c4ncnc5ccsc45)CC3)CC2)c2cc(F)ccc21 [compound 965]	25 to 100%	x (activity was measured to be greater than 5.0 μM)	25 to 100%	xxx (activity was measured to be less than 2.0 μM)
CC(=O)NC1CCC2(CCN(CCC3CCN(C(=O)C(C)(C)C)CC3)CC2)c2ccccc21 (stereo not shown) [compound 966]	25 to 100%	xxx (activity was measured to be less than 2.0 μM)	< 25%	x (activity was measured to be greater than 5.0 μM)
CCc1nccnc1N1CCC(N2CCC3(CC2)CN(C(=O)N(C)C)c2ccc(F)cc23)CC1 [compound 967]	25 to 100%	xx (activity was measured to be between 2.0 μM and 5.0 μM)	25 to 100%	xx (activity was measured to be between 2.0 μM and 5.0 μM)
CC(=O)N1CC2(CCN(CC3CCC(C)=CC3C)CC2)c2cc(F)ccc21 (stereo not shown) [compound 968]	< 25%	x (activity was measured to be greater than 5.0 μM)	< 25%	x (activity was measured to be greater than 5.0 μM)
CC(=O)NC1CCC2(CCN(CCC3CCN(S(C)(=O)=O)CC3)CC2)c2ccccc21 (stereo not shown) [compound 969]	25 to 100%	xxx (activity was measured to be less than 2.0 μM)	< 25%	x (activity was measured to be greater than 5.0 μM)
CC(=O)N1CC2(CCN(C3CC4CCC(C3)N4C(=O)O[C@@H]3CCOC3)CC2)c2ccccc21 (stereo partly shown) [compound 970]	25 to 100%	xxx (activity was measured to be less than 2.0 μM)	25 to 100%	xxx (activity was measured to be less than 2.0 μM)
CN(C)C(=O)N1CC2(CCN(C3CCN(C(=O)c4cccc(F)c4)CC3)CC2)c2cc(F)ccc21 [compound 972]	25 to 100%	xx (activity was measured to be between 2.0 μM and 5.0 μM)	< 25%	x (activity was measured to be greater than 5.0 μM)
CC(=O)N1CC2(CCN(C3CCN(c4nncs4)CC3)CC2)c2ccccc21 [compound 973]	25 to 100%	x (activity was measured to be greater than 5.0 μM)	< 25%	x (activity was measured to be greater than 5.0 μM)
CCOC(=O)N1CC[C@@H](CN2CCC3(CC2)CN(C(=O)N(C)C)c2ccc(F)cc23)C1 [compound 974]	25 to 100%	xxx (activity was measured to be less than 2.0 μM)	25 to 100%	xxx (activity was measured to be less than 2.0 μM)
CC(=O)N1CC2(CCN(C3CCN(c4cncc(C5=CCCC5)n4)CC3)CC2)c2ccccc21 [compound 975]	< 25%	x (activity was measured to be greater than 5.0 μM)	< 25%	x (activity was measured to be greater than 5.0 μM)
CC(=O)N1CC2(CCN(C3CCN(c4nccs4)CC3)CC2)c2cc(F)ccc21 [compound 976]	25 to 100%	xxx (activity was measured to be less than 2.0 μM)	25 to 100%	xxx (activity was measured to be less than 2.0 μM)
CC(=O)NC1CC2(CCN(C3CCN(C(=O)c4cccc(C(F)(F)F)c4)CC3)CC2)c2ccccc21 (stereo not shown) [compound 978]	< 25%	x (activity was measured to be greater than 5.0 μM)	< 25%	x (activity was measured to be greater than 5.0 μM)
O=C(N[C@H]1CC2(CCN(C3CC4CC[C@@H]3C4)CC2)c2ccccc21)N1CCOCC1 (stereo partly shown) [compound 979]	25 to 100%	x (activity was measured to be greater than 5.0 μM)	25 to 100%	xxx (activity was measured to be less than 2.0 μM)
CCOC(=O)N1C2CCC1CC(N1CCC3(CC(=O)c4cc(F)ccc43)C1)C2 (stereo not shown) [compound 980]	> 100%	xxx (activity was measured to be less than 2.0 μM)	25 to 100%	xxx (activity was measured to be less than 2.0 μM)
CCCC#CCOC(=O)N1CC[C@H](CN2CCC3(CC2)CN(C(=O)N(C)C)c2ccc(F)cc23)C1 [compound 981]	25 to 100%	xxx (activity was measured to be less than 2.0 μM)	25 to 100%	xxx (activity was measured to be less than 2.0 μM)
Cc1ccc2c(c1)C1(CCN(C3CC4CCC3C4)CC1)CN2C(=O)c1snnc1C (stereo not shown) [compound 982]	< 25%	x (activity was measured to be greater than 5.0 μM)	< 25%	x (activity was measured to be greater than 5.0 μM)
O=C1CC2(CCN(C3CCCCCC3)CC2)c2cc(Cl)ccc21 [compound 983]	25 to 100%	xxx (activity was measured to be less than 2.0 μM)	25 to 100%	xxx (activity was measured to be less than 2.0 μM)
CCCN1CC2(CCN(C[C@H]3C[C@H]4C=CC3C4)CC2)c2cc(F)ccc21 [compound 984]	25 to 100%	xx (activity was measured to be between 2.0 μM and 5.0 μM)	25 to 100%	xxx (activity was measured to be less than 2.0 μM)
CC(=O)NC1CC2(CCN(CC3CC4C=CC3C4)CC2)c2ccc(C)cc21 (stereo not shown) [compound 985]	25 to 100%	x (activity was measured to be greater than 5.0 μM)	25 to 100%	xx (activity was measured to be between 2.0 μM and 5.0 μM)
CCOC(=O)N1CCCC(N2CCCC3(CC2)CN(C(C)=O)c2ccc(F)cc23)CC1 (stereo not shown) [compound 986]	25 to 100%	xxx (activity was measured to be less than 2.0 μM)	25 to 100%	xxx (activity was measured to be less than 2.0 μM)

From patent US7786141B2 (Vertex Pharmaceuticals Incorporated, priority 2004, dated 2010)
